Where a name gives a salt, the structure may show the parent alone.
What was measured:
[1] = Oral acute toxicity (LD50, method of Finney); format: in vivo; conditions: Swiss female mice; for LD50: mouse, in vivo, dose which caused death in 50% of the animals
Method: The oral acute toxicity was determined for products A and A-B on groups of Swiss female mice by the method of Finney and the results were expressed as LD50 (the dose which caused death in 50% of the animals). The DL50 for product A was 3.7 mg/kg and for product A-B was 6.8 mg/kg. The acute toxicity of product A is only about 1.8 times greater than product A-B.

[2] = test system: Eimeria tenella; assay: Coccidiostatic activity in chicks infested with Eimeria tenella; format: in vivo; conditions: for weight gain / weight gain (or less) as compared to the animals which received product A-B: chicks infested with Eimeria tenella; for weight gain: 14 to 22 days old; for weight gain / weight gain (or less) as compared to the animals which received product A-B / consumption index: feed with 1 ppm of Product A or 3 ppm of Product A-B; for weight gain (or less) as compared to the animals which received product A-B: relative to product A-B; for consumption index: feed consumed compared to weight gain, higher = more sick
From the text: The coccidiostatic activity of the product of Step E of Example 1 (product A) was studied in comparison with that of a racemic mixture of 7-bromo-6-chloro-3-[3-(3-hydroxy-2-piperidyl)-acetonyl]-4(3H)-quinazolinone (product A-B), 14 day old chicks were weighed and were divided into 3 groups of 13 animals. One group received a feed containing 1 ppm of product A, a second group received a feed containing 3 ppm of product A-B and the 3rd group received just the feed without any additive. The next day, the chicks were infested with Eimeria tenella coccidies and when the chicks were 22 days old, they were weighed as well as the remaining feed. The caecums were removed and the number of caecal lesions were noted. Also noted was (1) the weight of gain (or less) of the chicks as compared to the animals which received product A-B, (2) consumption index which is the amount of feed consumed compared to the weight gain which indice was all the more elevated than the animals which were more sick and (3) the intensity of the lesions on a seal of 1 to 6 were noted.

Row | SMILES | LD50 [1] [mg/kg] | weight gain [2] [g] | weight gain (or less) as compared to the animals which received product A-B [2] | consumption index [2] | acute toxicity greater than product A-B ([1]; ratio to racemic mixture) | coccidiostatic activity greater than the racemic product A-B ([2]; ratio to racemic mixture) [times]
1 | O=C(CC1NCCCC1O)Cn1cnc2cc(Br)c(Cl)cc2c1=O (racemic) [Product A-B, 7-bromo-6-chloro-3-[3-(3-hydroxy-2-piperidyl)-acetonyl]-4(3H)-quinazolinone, reference compound] | 6.8 | 90.30 | 0% | 2.018 |  | 
2 | O=C(C[C@H]1NCCC[C@@H]1O)Cn1cnc2cc(Br)c(Cl)cc2c1=O (single isomer, unassigned) [Product A, dextrorotary 7-bromo-6-chloro-3-[3-(3-hydroxy-2-piperidyl)-acetonyl]-4(3H)-quinazolinone hydrobromide] | 3.7 | 103.07 | +14.14% | 1.807 | about 1.8 times | 3

— US4252947A, “Novel quinazolinone” (Roussel Uclaf, priority 1976, dated 1981)
